Results on one compound are retold here after patent publication US20130203861A1, “METHODS AND COMPOSITIONS FOR TREATING OVARIAN CANCER” (GOLDEN BIOTECHNOLOGY CORPORATION, priority 2009, published 2013).

This experiment concerns ovarian cancer cell line ES-2. The experiment can be described thus: MTT assay for anti-ovarian cancer (cell survival). It is filed as cell-based. Particulars: Homo sapiens, ES-2 cells, 48 hours treatment, absorbance at 570 nm, read-out: IC50 (half inhibition concentration), inhibition of ovarian cancer cells. The procedure: Exemplary Compound 1 was added into the culture media of ovarian cancer cell line ES-2 (a human ovarian cancer cell line) to determine the survival rates. Survival of cells was analyzed using MTT assay. Other suitable human ovarian cancer cell lines may be used by a skilled person in the art.
MTT assay is commonly used to analyze cell proliferation, survival rate of viable cells and cytotoxicity. MTT (3[4,5-dimethylthiazol-2-yl]-2,5-diphenyltetrazolium bromide) is a yellow dye which can be converted to water-insoluble purple formazan on the reductive cleavage of its tetrazolium ring by the succinate tetrazolium reductase in mitochondria of cells. The amount of formazan produced is used to detect the number of viable cells and calculate the survival rates.
The ES-2 cells were cultivated in McCoy' 5 A medium supplemented with 10% fetal bovine serum, 10 U/ml of Penicillin and 100 μg/ml of Streptomycin at 37° C., 5% CO2 for 24 hours. Proliferated cells were washed once with PBS, treated with 1× trypsin-EDTA, and centrifuged at 1200 rpm for 5 min. The supernatant was removed and the cell pellet was resuspended in 10 ml of fresh medium by gently shaking. Cells were seeded onto 96-well plates. […] The absorbances were measured at 570 nm with an ELISA Reader to determine the survival rates.

Molecules are shown by their SMILES. In brackets after ≈: the same amount, converted by molar mass.

Consider `COC1=C(OC)C(O)C(C/C=C(\C)CC/C=C(\C)CCC=C(C)C)C(C)C1=O` (stereo not shown) [Compound 1, 4-hydroxy-2,3-dimethoxy-6-methyl-5-(3,7,11-trimethyldodeca-2,6,10-trienyl)cyclohex-2-enone], for which the IC50 was 0.8 mg/L (≈ 2.05 µM).
